Measured values taken from PubChem BioAssay AID743059 (The Scripps Research Institute Molecular Screening Center, 2013).
Active and inactive are the calls of the source.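 The calls were made as follows: active = EC50 at or below 10 µM; inactive = EC50 above 10 µM.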

Molecular target: Nuclear hormone receptor DAF-12 (Heterodera glycines)
Test: H. glycines DAF-12 receptor agonist potency, dose response, cell-based, luminescence, HEK293 (AID 743059);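 also: agonist potency for compounds that raise hgDAF-12 reporter luminescence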
Conditions: HEK293 hgDAF-12 reporter, luciferase luminescence

Structure (SMILES)	EC50
c1ccc(CSc2ccc(-c3cccs3)nn2)cc1	> 67.5 µM (inactive)
Cc1nc2nc(-c3cccs3)[nH]c2cc1Br	> 67.5 µM (inactive)
Cc1cc(C(=O)CSc2cccc[n+]2[O-])c(C)n1-c1ccccc1	> 67.5 µM (inactive)
COc1ccc(Oc2cnn(-c3ccccc3)c(=O)c2Br)cc1	> 67.5 µM (inactive)
COc1ccc(Nc2nccc(-c3cccc(N)c3)n2)cc1	> 67.5 µM (inactive)
C/C(=C\C(=O)c1sccc1Cl)N(C)C	> 67.6 µM (inactive)
Cc1csc(NC(=O)c2ccc3ccccc3n2)n1	> 67.6 µM (inactive)
Oc1ccccc1-c1cc(-c2ccc3c(c2)OCCO3)n[nH]1	> 67.6 µM (inactive)
Cc1ccc(/C(N)=N/OC(=O)c2cccs2)cc1	> 67.6 µM (inactive)
CN(C)c1ccc(N=Nc2nccs2)cc1	> 67.4 µM (inactive)
O=C(NCC1CCCO1)c1cc(-c2ccccc2F)no1 (centres undefined)	inactive
CCOc1ccc(-c2c(=O)n(O)c3ccccc3[n+]2[O-])cc1	inactive
CCOC(=O)c1c(C)oc2c1cc(O)c1ccccc12	> 67.5 µM (inactive)
Cn1c(NC(=O)CCC2CCCCC2)cc(=O)n(C)c1=O	> 67.5 µM (inactive)
N=C1/C(=C/c2ccc(OCc3ccccc3F)cc2)C(=O)N=C2SC(CC(=O)N3CCOCC3)=NN12	> 67.5 µM (inactive)
COc1cccc(-c2noc(-c3cccs3)n2)c1	> 67.6 µM (inactive)
CCCS(=O)(=O)NCc1cn2c(C)csc2n1	> 67.5 µM (inactive)
Cc1cc(NC(=O)c2nn3cccnc3c2Cl)no1	> 67.5 µM (inactive)
C/C(=N/OCc1ccc(Br)cc1)c1ccccn1	> 67.6 µM (inactive)
O=c1c2ccccc2cnn1-c1ccc2ccccc2c1	> 67.5 µM (inactive)
Cc1nn(C(=O)c2cccs2)c(N)c1-c1ccccc1	> 67.5 µM (inactive)
CCOC(=O)c1cnc(SCCc2ccccc2)nc1N	> 67.5 µM (inactive)
CS(=O)(=O)c1ccc2nc(NC(=O)Nc3ccccc3F)sc2c1	> 67.5 µM (inactive)

Structure (SMILES)	EC50
Oc1[nH]c2ccccc2c1N=Nc1ccccc1F	> 67.6 µM (inactive)
O=C(Nc1ncccc1O)c1ccc(C(=O)c2ccccc2)cc1	4.55 µM
COc1ccc2oc3cc(NCCN(C)C)ccc3c(=O)c2c1	inactive
Cc1cc(N=Nc2ccc3ccccc3c2)ccc1O	> 67.6 µM (inactive)
COc1ccc2oc(C(=O)Nc3nccs3)c(C)c2c1	> 67.5 µM (inactive)
Clc1ccc(OCCSc2ncccn2)c(Br)c1	> 67.5 µM (inactive)
O=C(NCCc1ccccc1)c1cc(-c2ccco2)on1	7.6 µM
Cc1scc(C(=O)N/N=C/c2ccsc2)c1C	> 67.6 µM (inactive)
Cc1ccc(-c2nnc(NC3CCCC3)s2)cc1	> 67.6 µM (inactive)
CCCCSc1ncnc2c1ncn2C1CCCCO1 (centres undefined)	> 67.4 µM (inactive)
COCCNC(=O)/C(C#N)=C/c1cc(C)n(C2CCCCC2)c1C	> 67.5 µM (inactive)
FC(F)(F)c1cc(Cl)c2nc(-c3ccccc3)cn2c1	> 67.5 µM (inactive)
O=C(/C=C/c1ccccc1)N1CCC(c2ccccc2)C1 (centres undefined)	> 67.5 µM (inactive)
CN(C)/C=N/C(=S)Nc1ccc(Cl)cc1	> 67.5 µM (inactive)
Cc1cc2nn(-c3ccc(F)cc3)nc2cc1N	> 67.5 µM (inactive)
O=c1[nH]c(=O)n(C2CC(O)C(CO)O2)cc1Br (centres undefined)	> 67.6 µM (inactive)
Nc1ccc2c(c1)Cc1cc(N)c(Cl)cc1-2	> 67.4 µM (inactive)
COCCNC(=O)/C(C#N)=C/c1cc(C)n(-c2ccc(C)cc2)c1C	> 67.5 µM (inactive)
O=C(O)c1cc(-c2cccs2)[nH]n1	> 67.6 µM (inactive)
Nc1ccc(C(=O)Nc2ccccc2N)cc1	4.24 µM
Cc1cccc(/C(N)=N/OC(=O)c2ccco2)c1	> 67.6 µM (inactive)
CCS(=O)(=O)Nc1cc(-c2nc3cccnc3s2)ccc1C	> 67.5 µM (inactive)
Cc1cc(-c2ccncc2)n2ncc(-c3ccccc3)c2n1	> 67.6 µM (inactive)

Structure (SMILES)	EC50
CCSCC(C)(C)n1[nH]c2ccccc2c1=O	> 67.6 µM (inactive)
Cc1cc(C(=O)NC2CCCCC2)c(C)n1-c1ccc(F)cc1	> 67.5 µM (inactive)
O=c1[nH]c(=O)n(C2CC(O)C(CO)O2)cc1I (centres undefined)	> 67.6 µM (inactive)
CC(=Nc1cccc(C)c1)c1sc2ccccc2c1O	> 67.6 µM (inactive)
Cc1nn(-c2nnc(NC3CCCCC3)nn2)c(C)c1Br	> 67.6 µM (inactive)
Oc1cccc(/C=C/c2ccc3cccc(O)c3n2)c1	> 67.6 µM (inactive)
Oc1[nH]c2ccccc2c1C=Nc1ccccc1	> 67.5 µM (inactive)
Cc1cccc(/C(N)=N/OC(=O)c2cccs2)c1	> 67.5 µM (inactive)
OCc1ccc(N=Nc2ccccc2)cc1	> 67.5 µM (inactive)
Cc1ccc(-c2cn3cccnc3n2)cc1	> 67.6 µM (inactive)
CN(C)c1ccc(Nc2nc(-c3cccnc3)cs2)cc1	> 67.5 µM (inactive)
CCn1c(O)c(C=Nc2ccccc2)sc1=S	> 67.5 µM (inactive)
Cn1c(NCc2c[nH]c3ccccc23)nc2ccccc21	> 67.5 µM (inactive)
C=CCN1C(=O)[C@@H](CC(=O)N2CCSCC2)[C@]2(C(=O)OC)CCCCC=C12	> 67.5 µM (inactive)
Cc1cccc(NC(=O)c2ccc3ccccc3n2)c1C	> 67.5 µM (inactive)
CC(C)C(N)c1csc(Nc2nncc3ccccc23)n1 (centres undefined)	> 67.1 µM (inactive)
Oc1ccccc1-c1cc(-c2ccc(Cl)cc2)n[nH]1	> 67.5 µM (inactive)
Cn1c(NC(=O)CCc2ccccc2)cc(=O)n(C)c1=O	> 67.5 µM (inactive)
c1ccc(CCSc2nccn2-c2ccccc2)cc1	> 67.6 µM (inactive)
Nc1nn(-c2cccc(F)n2)cc1-c1ccccc1	> 67.5 µM (inactive)
C(=N\NC1=Nc2cccc3cccc1c23)/c1ccccc1	> 67.5 µM (inactive)
COCCNc1nc(-c2cc3ccccc3o2)cs1	> 67.5 µM (inactive)
Cc1ccc(/C=N/N=C/c2ccc(C)s2)s1	> 67.5 µM (inactive)

Structure (SMILES)	EC50
O=C(NNCc1ccccc1)c1ccccn1	> 67.6 µM (inactive)
c1ccc(CSc2ccc(-c3ccccn3)nn2)nc1	> 67.5 µM (inactive)
Cc1cccc(/C=C\c2nc3ccccc3c(=O)[nH]2)c1	> 67.5 µM (inactive)
Clc1ccccc1Nc1nc2ccccc2o1	> 67.6 µM (inactive)
CC1CCC(NC(=O)c2cccn2C)CC1 (centres undefined)	> 67.6 µM (inactive)
O=c1c2ccccc2nnn1CSc1ccccc1F	> 67.5 µM (inactive)
CCc1cc(C(=O)Nc2ncccc2O)sc1C	> 67.5 µM (inactive)
Cc1cnc(NC(=O)COc2ccc3c(c2)CCC3)s1	> 67.6 µM (inactive)
O=[N+]([O-])c1ccc2c(c1)Nc1nc3ccccc3nc1N2	> 67.5 µM (inactive)
Cc1cccc(Nc2n[nH]c(C)c2[N+](=O)[O-])c1	> 67.5 µM (inactive)
Cc1ccc(Nc2ncccc2C(N)=O)cc1[N+](=O)[O-]	> 67.6 µM (inactive)
O=C(NCCCn1ccnc1)c1cc(-c2cccs2)on1	9.01 µM
CC1=CN2C(=N)/C(=C/c3ccco3)C(=O)N=C2S1	> 67.5 µM (inactive)
CCOc1ccc2nc(NC(=O)Nc3cccs3)sc2c1	> 67.5 µM (inactive)
Cc1cc(-c2nc3cccnc3s2)ccc1NS(=O)(=O)c1cccs1	> 67.5 µM (inactive)
Nc1ncc(Br)cc1N=Cc1ccccc1	> 67.5 µM (inactive)
C/C(=N/NC(=O)c1cc(C(C)C)[nH]n1)c1cccs1	> 67.6 µM (inactive)
Cc1ccc(-c2nc(-c3ccncc3)no2)cc1C	> 67.5 µM (inactive)
c1ccc([C@H]2CN3C(=N2)Sc2ccccc23)cc1	> 67.1 µM (inactive)
Cc1ccc(S(=O)(=O)/N=C(/NC(=S)Nc2ccccc2)c2ccccc2)cc1	> 67.5 µM (inactive)
Brc1ccc(-c2noc(-c3ccccn3)n2)o1	> 67.5 µM (inactive)
COC(=O)c1sc2nc3c(cc2c1N)CCCC3	> 67.5 µM (inactive)
Cc1cc(C(=O)CSc2ncccn2)c(C)n1Cc1ccco1	> 67.5 µM (inactive)

Structure (SMILES)	EC50
Cc1ccc(N/N=C(\C#N)C(=N)N2CCCCCC2)cc1	> 67.5 µM (inactive)
c1ccc(N=Nc2ccc(C3=NCCO3)cc2)cc1	> 67.6 µM (inactive)
N#Cc1c(N)nc(N)nc1Nc1ccc(Br)cc1	> 67.4 µM (inactive)
Nc1c2c(nc3sc4c(c13)CCCC4)CCCCC2	> 67.6 µM (inactive)
Cc1ccc(/C=N/NC(=O)c2ccccn2)s1	> 67.6 µM (inactive)
Clc1ccc(CSc2nc3ccncc3[nH]2)cc1	> 67.5 µM (inactive)
CN(C)c1ccc(C(C#N)c2ccccc2)nn1 (centres undefined)	> 67.5 µM (inactive)
CCOC(=O)N1CCC(NC(=O)c2cc3ccccn3n2)CC1	> 67.5 µM (inactive)
O=C(NCCCn1ccnc1)c1cc(-c2ccccc2)on1	9.16 µM
Nc1c(-c2cccs2)cnc2c(-c3ccc(F)cc3)cnn12	> 67.5 µM (inactive)
c1csc(-c2nnc(-c3ccc(N4CCOCC4)cc3)o2)c1	> 67.5 µM (inactive)
Cc1cc(NC(=O)CSc2nc3c(cc2C#N)CCC3)no1	> 67.6 µM (inactive)
Cc1cc(OCc2cc(C(=O)NCc3cc(C(C)C)no3)no2)cc(C)c1Cl	> 67.5 µM (inactive)
Cc1ccc2c(c1)N=C(c1ccccc1)CC(C(Cl)Cl)=N2	> 67.5 µM (inactive)
Brc1ccc(-c2noc(-c3ccccc3)n2)o1	> 67.6 µM (inactive)
Clc1cccc(-c2nnc(-c3ccccc3)o2)c1	> 67.5 µM (inactive)
Cc1nn(-c2ccccc2)c(Cl)c1/C=N/Nc1ccc(Cl)c(C(=O)O)c1	> 67.5 µM (inactive)
O=C(CC(=O)c1cccs1)c1ccncc1	> 67.5 µM (inactive)
CCCSc1nsc(NC(=O)CC)n1	> 67.5 µM (inactive)
Cc1ccc(CN2CCN(CC(C)C)C(CCO)C2)s1 (centres undefined)	> 67.6 µM (inactive)
Cc1ccn(-c2cccc(-n3ccc(C)n3)n2)n1	> 67.6 µM (inactive)
Fc1ccccc1CSc1ncnc2c1ncn2C1CCCCO1 (centres undefined)	> 67.6 µM (inactive)
